Experimental data as given in patent US20260137701A1, “CHOLESTENOIC ACID (CA) AND A SULFATED DERIVATIVE THEREOF, 3[BETA]-SULFATE-5-CHOLESTENOIC ACID (CA3S), AS ENDOGENOUS EPIGENETIC REGULATORS” (priority 2022, published 2026).

Tested on: HepG-2 cells
Test: mRNA sequencing, differential expression genes
Type: cell-based, human
Description: After culturing HepG-2 cells in DMEM medium with HG for 72 hours followed by treating with 20 μM CA for 0, 3, 6, 12, and 24 hours, genomic DNA from 5×10^7 cells were extracted using QIAamp® DNA Mini Kit (QIAGEN, Hilden, Germany). Each sample, 6 μg, was sent to CD Genomics Co., Ltd (New York, USA) for analysis of WGBS. Total RNA was isolated using the Promega SV total RNA isolation system (Madison, WI, USA) with DNase treatment. Each sample, 2 μg, were sent to CD Genomics Co., Ltd (New York, USA) for analysis of RNA sequencing. The same samples, 2 μg, was used for the first-strand cDNA synthesis as recommended by the manufacturer (Invitrogen, Carlsbad, CA). RT-qPCR was performed using SYBR Green as the indicator on ABI 7500 Fast Real-Time PCR System (Applied Biosystems, Foster City, CA). Amplifications of j-actin or GAPDH were used as internal controls. Relative messenger RNA (mRNA) expression was quantified with the comparative cycle threshold (Ct) method using a sutiable primer set and was expressed as 2-ΔΔCt as described previously.
Total RNA was extracted and purified from HepG-2 cells using SV total RNA isolation system (Promega, Madison, WI). Messenger RNA was purified from total RNA using poly-T oligo-attached magnetic beads. After fragmentation, the first strand cDNA was synthesized using random hexamer primers, followed by the second strand cDNA synthesis using either dUTP for directional library or dTTP for non-directional library. The library was checked with Qubit and real-time PCR for quantification and bioanalyzer for size distribution detection. Quantified libraries will be pooled and sequenced on Illumina® platforms, according to effective library concentration and data amount. Raw data (raw reads) of fastq format were first processed through in-house perl scripts. In this step, clean data (clean reads) were obtained by removing reads containing adapter, reads containing ploy-N and low-quality reads from raw data. At the same time, Q20, Q30 and GC content of the clean data were calculated. All the downstream analyses were based on clean data with high quality. The clean data were aligned to reference genome (GRCh37) using Hisat2 v2.0.5 software. Differential expression genes (DEGs) were performed using the DESeq2 R package (1.20.0). DAVID software (website located at david.ncifcrf.gov/) was used to test the statistical enrichment of DMR related genes in the GO and KEGG pathways.

## CC(CCC[C@@H](C)[C@H]1CC[C@H]2[C@@H]3CC=C4C[C@@H](O)CC[C@]4(C)[C@H]3CC[C@]12C)C(=O)O (stereo partly drawn) [CA, 3β-hydroxy-5-cholestenoic acid]
20 μM CA, 6 hours
  Fold Change ABCF1 (down regulated gene): −1.35 fold
  Fold Change ACTA1 (up regulated gene): 1.32 fold
  Fold Change ACTN4 (up regulated gene): 3.26 fold
  Fold Change ANGPTL8 (down regulated gene): −1.77 fold
  Fold Change ARHGAP17 (up regulated gene): 2.50 fold
  Fold Change ATG16L1 (down regulated gene): −1.32 fold
  Fold Change C2 (down regulated gene): −1.14 fold
  Fold Change C5orf51 (down regulated gene): −1.06 fold
  Fold Change CD99 (up regulated gene): 3.60 fold
  Fold Change COG5 (down regulated gene): −1.44 fold
  Fold Change CPSF1 (down regulated gene): −4.45 fold
  Fold Change CUTA (up regulated gene): 1.76 fold
  Fold Change CYP1A1 (up regulated gene): 1.97 fold
  Fold Change CYP51A1 (down regulated gene): −1.25 fold
  Fold Change DCAF11 (down regulated gene): −1.74 fold
  Fold Change DLG5 (up regulated gene): 1.44 fold
  Fold Change DNHD1 (down regulated gene): −1.21 fold
  Fold Change EEF1A1P13 (up regulated gene): 2.82 fold
  Fold Change EEF1B2 (up regulated gene): 1.29 fold
  Fold Change EHMT2 (up regulated gene): 1.16 fold
  Fold Change FBL (down regulated gene): −1.87 fold
  Fold Change FDFT1 (down regulated gene): −1.30 fold
  Fold Change FLII (up regulated gene): 2.04 fold
  Fold Change FST (up regulated gene): 1.25 fold
  Fold Change FZD1 (up regulated gene): 1.06 fold
  Fold Change GBA (up regulated gene): 2.25 fold
  Fold Change GBP1 (up regulated gene): 1.37 fold
  Fold Change GFUS (down regulated gene): −2.73 fold
  Fold Change GMPR2 (up regulated gene): 3.88 fold
  Fold Change GNL1 (up regulated gene): 1.59 fold
  Fold Change GTF2H1 (up regulated gene): 1.85 fold
  Fold Change GTPBP6 (down regulated gene): −2.08 fold
  Fold Change HMGCR (down regulated gene): −1.55 fold
  Fold Change HMGCS1 (down regulated gene): −2.12 fold
  Fold Change HSD17B7 (down regulated gene): −1.05 fold
  Fold Change HSPA1A (up regulated gene): 1.22 fold
  Fold Change HSPA1B (up regulated gene): 1.16 fold
  Fold Change IBTK (down regulated gene): −2.44 fold
  Fold Change ID3 (down regulated gene): −2.65 fold
  Fold Change IDI1 (down regulated gene): −1.86 fold
  Fold Change INPP5K (up regulated gene): 1.04 fold
  Fold Change IPO4 (down regulated gene): −1.51 fold
  Fold Change IRF9 (up regulated gene): 1.42 fold
  Fold Change LDLR (down regulated gene): −1.46 fold
  Fold Change LFNG (up regulated gene): 1.02 fold
  Fold Change LINC02119 (down regulated gene): −1.39 fold
  Fold Change LOC729973 (down regulated gene): −1.08 fold
  Fold Change LOC107985276 (down regulated gene): −1.32 fold
  Fold Change LOC112268009 (up regulated gene): 1.19 fold
  Fold Change LPCAT1 (down regulated gene): −1.43 fold
  Fold Change MCRIP1 (up regulated gene): 2.17 fold
  Fold Change MINCR (up regulated gene): 1.24 fold
  Fold Change MSMO1 (down regulated gene): −2.30 fold
  Fold Change MT1E (up regulated gene): 1.81 fold
  Fold Change MT1F (up regulated gene): 2.51 fold
  Fold Change MT1G (up regulated gene): 2.43 fold
  Fold Change MT1X (up regulated gene): 2.15 fold
  Fold Change MT2A (up regulated gene): 1.44 fold
  Fold Change MTCH2 (down regulated gene): −2.50 fold
  Fold Change MTMR11 (up regulated gene): 1.48 fold
  Fold Change MVD (down regulated gene): −1.20 fold
  Fold Change MVK (down regulated gene): −1.57 fold
  Fold Change MYEOV (down regulated gene): −1.08 fold
  Fold Change NDUFS1 (up regulated gene): 1.45 fold
  Fold Change NEK10 (up regulated gene): 1.06 fold
  Fold Change NEU4 (down regulated gene): −1.99 fold
  Fold Change NOP9 (down regulated gene): −2.89 fold
  Fold Change NPIPA2 (up regulated gene): 1.32 fold
  Fold Change NUP160 (down regulated gene): −1.36 fold
  Fold Change PAK1 (down regulated gene): −1.14 fold
  Fold Change PAK1IP1 (down regulated gene): −3.71 fold
  Fold Change PALLD (up regulated gene): 1.02 fold
  Fold Change PCSK9 (down regulated gene): −1.08 fold
  Fold Change PFKFB4 (down regulated gene): −1.30 fold
  Fold Change PHF1 (up regulated gene): 1.42 fold
  Fold Change PNPLA3 (down regulated gene): −1.42 fold
  Fold Change POLR3E (down regulated gene): −1.12 fold
  Fold Change PRPF31 (up regulated gene): 1.38 fold
  Fold Change PRSS8 (down regulated gene): −1.46 fold
  Fold Change PSMB3 (down regulated gene): −4.67 fold
  Fold Change PSME2 (up regulated gene): 2.33 fold
  Fold Change PTEN (down regulated gene): −1.64 fold
  Fold Change PTGDR2 (up regulated gene): 1.58 fold
  Fold Change PUF60 (down regulated gene): −2.01 fold
  Fold Change RBFOX2 (down regulated gene): −1.14 fold
  Fold Change RCBTB2 (up regulated gene): 1.18 fold
  Fold Change RDH11 (down regulated gene): −1.06 fold
  Fold Change RN7SK (down regulated gene): −1.58 fold
  Fold Change RNF187 (up regulated gene): 1.25 fold
  Fold Change RPS9 (down regulated gene): −1.14 fold
  Fold Change RPS14P1 (up regulated gene): 1.50 fold
  Fold Change RPS17 (up regulated gene): 3.79 fold
  Fold Change RRN3 (down regulated gene): −1.05 fold
  Fold Change RUSC1-AS1 (down regulated gene): −1.37 fold
  Fold Change SBNO2 (up regulated gene): 1.13 fold
  Fold Change SERTAD1 (up regulated gene): 1.06 fold
  Fold Change SGK1 (up regulated gene): 1.03 fold
  Fold Change SLC39A7 (up regulated gene): 2.59 fold
  Fold Change SLC39A10 (down regulated gene): −1.10 fold
  Fold Change SNHG32 (down regulated gene): −1.62 fold
  Fold Change SPC25 (down regulated gene): −1.51 fold
  Fold Change SPSB2 (up regulated gene): 1.18 fold
  Fold Change SQLE (down regulated gene): −1.73 fold
  Fold Change SQSTM1 (down regulated gene): −1.29 fold
  Fold Change STARD4 (down regulated gene): −1.26 fold
  Fold Change STAT5A (up regulated gene): 1.09 fold
  Fold Change SYBU (up regulated gene): 1.09 fold
  Fold Change SYNPO (up regulated gene): 1.14 fold
  Fold Change TBCE (down regulated gene): −1.67 fold
  Fold Change TINF2 (down regulated gene): −1.58 fold
  Fold Change TJP1 (up regulated gene): 1.02 fold
  Fold Change TPM1-AS (up regulated gene): 1.08 fold
  Fold Change TRNH (down regulated gene): −1.08 fold
  Fold Change U2AF1 (up regulated gene): 1.40 fold
  Fold Change UGT2A3 (up regulated gene): 1.83 fold
  Fold Change VARS1 (up regulated gene): 3.03 fold
  Fold Change VPS11 (up regulated gene): 1.96 fold
  Fold Change YWHAE (down regulated gene): −1.84 fold
3 hours post treatment
  number of DEGs regulated by CA, total: 109
  number of DEGs, down-regulated: 50
  number of DEGs, up-regulated: 59
6 hours
  number of DEGs regulated by CA, total: 120
  number of DEGs, down-regulated: 61
  number of DEGs, up-regulated: 59
12 hours
  number of DEGs regulated by CA, total: 164
  number of DEGs, down-regulated: 80
  number of DEGs, up-regulated: 84
24 hours
  number of DEGs regulated by CA, total: 245
  number of DEGs, down-regulated: 112
  number of DEGs, up-regulated: 133
